Assay results: patent US8680290B2, “Isoxazoline derivatives and their use as herbicides” (Syngenta Limited, priority 2004, dated 2014)

Tested on: Monocotyledonous and dicotyledonous test plants
Test: Example B1 herbicidal action, application pre-emergence (Table B1b)
Assay type: in vivo
Details: 250 g/ha, evaluated after 4 weeks
Description: Monocotyledonous and dicotyledonous test plants were sown in seed trays in standard soil. Immediately after sowing (pre-emergence) or after 8 to 9 days cultivation (post-emergence), the test compounds were applied by spraying in the form of an aqueous solution derived from the formulation of the technical active ingredient in 0.6 ml acetone and 45 ml formulation solution containing 10.6% Emulsogen EL (CAS RN 61791-12-6), 42.2% N-methylpyrrolidone, 42.2% dipropylene glycol monomethyl ether (CAS RN 34590-94-8) and 0.2% X-77 (CAS RN 11097-66-8). The test plants were then grown in a greenhouse under optimum conditions. After a test duration of 3 weeks (post-emergence) or 4 weeks (pre-emergence), the test was evaluated (10=total damage to plant, 0=no damage to plant).

SMILES	herbicidal action (damage rating 0-10), Amaranthus	herbicidal action (damage rating 0-10), Digitaria	herbicidal action (damage rating 0-10), Setaria	herbicidal action (damage rating 0-10), Sida	herbicidal action (damage rating 0-10), Panicum
Cc1cc(C(F)(F)S(=O)(=O)C2=NOC(C)(C)C2)no1 [4.03]	9	10	10	7	–
C=C(OC(C)=O)C(Cl)(c1c(F)cccc1F)S(=O)(=O)C1=NOC(C)(C)C1 (stereo not drawn) [Compound No. 1.58]	5	8	7	3	9
Cc1nsc(C#N)c1C(F)(F)S(=O)(=O)C1=NOC(C)(C)C1 [Compound No. 3.02, 4-[(5,5-dimethyl-4,5-dihydroisoxazole-3-sulfonyl)-difluoro-methyl]-3-methyl-isothiazole-5-carbonitrile]	7	10	10	0	10
Cc1nn(C)c(OCC(F)(F)F)c1C(F)S(=O)(=O)C1=NOC(C)(C)C1 (stereo not drawn) [Compound No. 2.24]	10	10	10	5	–
Cc1cc(C(F)S(=O)(=O)C2=NOC(C)(C)C2)no1 (stereo not drawn) [4.02]	10	8	7	0	10
CCOc1c(C(F)(F)S(=O)(=O)C2=NOC(C)(C)C2)c(C(F)(F)F)nn1C [2.17]	10	8	8	5	8
CC1(C)CC(S(=O)(=O)C(Br)c2cc(F)cc(F)c2)=NO1 (stereo not drawn) [1.134]	5	10	9	0	10
CCC(Cl)(c1c(F)cccc1F)S(=O)(=O)C1=NOC(C)(C)C1 (stereo not drawn) [1.16]	0	4	4	0	5
CC1(C)CC(S(=O)(=O)C(Br)c2ccccc2-c2ccccc2)=NO1 (stereo not drawn) [1.151]	5	0	7	4	8
Cn1nc(C(F)(F)F)c(C(F)(F)S(=O)(=O)C2=NOC(C)(C)C2)c1OCC(F)F [2.21]	10	10	10	8	10
